Test results: article PMC3412733, “Identification and recombinant expression of anandamide hydrolyzing enzyme from Dictyostelium discoideum” (BMC Microbiology, 2012)

Molecular target: T1, MBP-FAAH (Dictyostelium FAAH) (Dictyostelium discoideum, UniProt Q8MMR8)
T1 construct: gene DDB_G0275967; full length (637 residues) with N-terminal MBP and 6xHis tags kept, expressed in E. coli BL21(DE3) (pCWMalET), amylose resin purified
T1 sequence (Q8MMR8 1-637): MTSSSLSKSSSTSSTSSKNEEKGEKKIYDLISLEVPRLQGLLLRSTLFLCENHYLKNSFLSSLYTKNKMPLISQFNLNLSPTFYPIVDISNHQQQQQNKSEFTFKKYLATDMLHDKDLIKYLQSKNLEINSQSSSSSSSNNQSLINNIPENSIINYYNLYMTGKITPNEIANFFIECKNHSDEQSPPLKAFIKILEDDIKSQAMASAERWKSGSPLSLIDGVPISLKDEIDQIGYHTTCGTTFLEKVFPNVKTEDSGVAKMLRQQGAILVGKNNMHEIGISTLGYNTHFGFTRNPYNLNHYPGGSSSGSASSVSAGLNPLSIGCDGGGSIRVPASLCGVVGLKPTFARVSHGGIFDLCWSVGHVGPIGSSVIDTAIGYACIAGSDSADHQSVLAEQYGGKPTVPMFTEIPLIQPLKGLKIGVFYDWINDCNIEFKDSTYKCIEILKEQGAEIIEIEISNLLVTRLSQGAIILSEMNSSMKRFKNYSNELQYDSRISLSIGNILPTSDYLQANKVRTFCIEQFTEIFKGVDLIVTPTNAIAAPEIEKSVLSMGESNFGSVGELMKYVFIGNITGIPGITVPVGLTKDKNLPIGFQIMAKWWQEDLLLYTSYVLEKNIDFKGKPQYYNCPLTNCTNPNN
Assay: CE-ES-MS of product arachidonic acid
Format: biochemical
Conditions: pH 9.0, 50 mM NaCl, 10% DMSO, 37°C, 30 min

**Q.** With `CCCCC/C=C\C/C=C\C/C=C\C/C=C\CCCC(=O)NCCO` [anandamide] as the compound, how does the “CE-ES-MS of product arachidonic acid” value read?
**A.** hydrolyzed anandamide to free arachidonic acid and ethanolamine as determined by CE-ES-MS
